From patent publication US7605156B2, “Methods for the use of inhibitors of cytosolic phospholipase A2” (Wyeth, priority 2001, dated 2009)

What follows are compounds tested against T1, cPLA2 (Homo sapiens, UniProt P47712) (assay: Coumarine assay (hydrolysis of 7-hydroxycoumarinyl 6-heptenoate)). Conditions: 60 μM 7-hydroxycoumarinyl 6-heptenoate, pH 7.5; read-out: Coumarin IC50.
T1 sequence (P47712 1-749): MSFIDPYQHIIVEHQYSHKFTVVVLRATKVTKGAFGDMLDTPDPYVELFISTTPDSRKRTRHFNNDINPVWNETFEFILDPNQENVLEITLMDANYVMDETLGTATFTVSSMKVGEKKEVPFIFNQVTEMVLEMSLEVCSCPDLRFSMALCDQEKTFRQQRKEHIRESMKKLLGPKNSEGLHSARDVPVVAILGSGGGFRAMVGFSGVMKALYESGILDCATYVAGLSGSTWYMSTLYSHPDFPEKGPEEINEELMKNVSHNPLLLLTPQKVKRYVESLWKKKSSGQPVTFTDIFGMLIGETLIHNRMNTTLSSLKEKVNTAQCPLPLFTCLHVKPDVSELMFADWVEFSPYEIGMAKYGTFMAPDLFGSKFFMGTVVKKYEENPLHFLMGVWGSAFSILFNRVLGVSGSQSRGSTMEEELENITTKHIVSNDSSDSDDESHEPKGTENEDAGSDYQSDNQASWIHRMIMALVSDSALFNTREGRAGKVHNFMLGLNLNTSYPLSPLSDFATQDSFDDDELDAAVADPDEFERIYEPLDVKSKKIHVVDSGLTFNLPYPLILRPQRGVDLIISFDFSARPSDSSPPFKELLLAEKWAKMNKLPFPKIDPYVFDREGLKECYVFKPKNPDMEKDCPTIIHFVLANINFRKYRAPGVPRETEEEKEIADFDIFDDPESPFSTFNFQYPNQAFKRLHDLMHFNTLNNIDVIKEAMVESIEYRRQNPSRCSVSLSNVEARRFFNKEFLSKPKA
Format: biochemical

IC50 [nM]	SMILES
170	O=C(O)CCc1ccc(S(=O)(=O)CCc2c(CCNS(=O)(=O)Cc3ccccc3)n(C(c3ccccc3)c3ccccc3)c3ccc(Cl)cc23)cc1 [Example 130, 3-(4-{[2-(1-Benzhydryl-2-{2-[(benzylsulfonyl)amino]ethyl}-5-chloro-1H-indol-3-yl)ethyl]sulfonyl}phenyl)propanoic acid]
340	Cc1ccccc1S(=O)(=O)NCCc1c(CCOc2ccc(C(=O)O)cc2)c2cc(Cl)ccc2n1C(c1ccccc1)c1ccccc1 [Example 233, 4-{2-[1-benzhydryl-5-chloro-2-(2-{[(2-methylphenyl)sulfonyl]amino}ethyl)-1H-indol-3-yl]ethoxy}benzoic acid]
190	COc1cc(C)ccc1S(=O)(=O)NCCc1c(CCCc2ccc(C(=O)O)cc2)c2cc(Cl)ccc2n1C(c1ccccc1)c1ccccc1 [Example 167, 4-{3-[1-benzhydryl-5-chloro-2-(2-{[(2-methoxy-4-methylphenyl)sulfonyl]amino}ethyl)-1H-indol-3-yl]propyl}benzoic acid]
170	CC(C)Oc1ccccc1S(=O)(=O)NCCc1c(CCOc2ccc(C(=O)O)cc2)c2cc(Cl)ccc2n1C(c1ccccc1)c1ccccc1 [Example 185, 4-(2-{1-Benzhydryl-5-chloro-2-[2-(2-isopropoxy-benzenesulfonylamino)-ethyl]-1H-indol-3-yl}-ethoxy)benzoic acid]
200	O=C(O)c1ccc(CCCc2c(CCNS(=O)(=O)c3ccccc3-c3ccccc3)n(C(c3ccccc3)c3ccccc3)c3ccc(Cl)cc23)cc1 [Example 157, 4-[3-(1-benzhydryl-2-{2-[(1,1′-biphenyl-2-ylsulfonyl)amino]ethyl}-5-chloro-1H-indol-3-yl)propyl]benzoic acid]
1900	CC(CCl)c1ccccc1S(=O)(=O)NCCc1c(CCOc2ccc(C(=O)O)cc2)c2cc(Cl)ccc2n1C(c1ccccc1)c1ccccc1 (centres unmarked) [Example 278]
420	O=C(O)c1ccc(OCCc2c(CCNS(=O)(=O)CSc3ccc(Cl)cc3Cl)n(C(c3ccccc3)c3ccccc3)c3ccc(Cl)cc23)cc1 [Example 287, 4-[2-(1-benzhydryl-5-chloro-2-{2-[([[(2,4-dichlorophenyl)sulfanyl]methyl}sulfonyl)amino]ethyl}-1H-indol-3-yl)ethoxy]benzoic acid]
500	O=C(O)c1ccc(OCCc2c(CCNS(=O)(=O)c3ccc(C(F)(F)F)cc3)n(C(c3ccccc3)c3ccccc3)c3ccc(Cl)cc23)cc1 [Example 229, 4-(2-{1-benzhydryl-5-chloro-2-[2-({[4-(trifluoromethyl)phenyl]sulfonyl}amino)ethyl]-1H-indol-3-yl}ethoxy)benzoic acid]
450	N#Cc1ccccc1S(=O)(=O)NCCc1c(CCCc2ccc(C(=O)O)cc2)c2cc(Cl)ccc2n1C(c1ccccc1)c1ccccc1 [Example 155, 4-{3-[1-benzhydryl-5-chloro-2-(2-{[(2-cyanophenyl)sulfonyl]amino}ethyl)-1H-indol-3-yl]propyl}benzoic acid]
600	O=C(O)c1ccc(S(=O)(=O)CCc2c(CCNS(=O)(=O)c3ccccc3Cl)n(C(c3ccccc3)c3ccccc3)c3ccc(Cl)cc23)cc1 [Example 256, 4-({2-[1-benzhydryl-5-chloro-2-(2-{[(2-chlorophenyl)sulfonyl]amino}ethyl)-1H-indol-3-yl]ethyl}sulfonyl)benzoic acid]
500	O=C(O)c1ccc(OCCc2c(CCNS(=O)(=O)CSc3ccc(F)c(Cl)c3)n(C(c3ccccc3)c3ccccc3)c3ccc(Cl)cc23)cc1 [Example 221, 4-[2-(1-benzhydryl-5-chloro-2-{2-[({[(3-chloro-4-fluorophenyl)thio]methyl}sulfonyl)amino]ethyl}-1H-indol-3-yl)ethoxy]benzoic acid]
2600	O=C(O)c1ccc(OCCc2c(CCNS(=O)(=O)c3ccc(-c4ccc(F)cc4)cc3)n(C(c3ccccc3)c3ccccc3)c3ccc(Cl)cc23)cc1 [Example 217, 4-{2-[1-benzhydryl-5-chloro-2-(2-{[(4′-fluoro-1,1′-biphenyl-4-yl)sulfonyl]amino}ethyl)-1H-indol-3-yl]ethoxy}benzoic acid]
1200	COC[C@@H]1CCCN1CCS(=O)(=O)NCCc1c(CCOc2ccc(C(=O)O)cc2)c2cc(Cl)ccc2n1C(c1ccccc1)c1ccccc1 [Example 248, 4-[2-(1-benzhydryl-5-chloro-2-{2-[({2-[(2S)-2-(methoxymethyl)pyrrolidin-1-yl]ethyl}sulfonyl)amino]ethyl}-1H-indol-3-yl)ethoxy]benzoic acid]
350	O=C(O)c1ccc(CCCc2c(CCNS(=O)(=O)c3cccc(OC(F)(F)F)c3)n(C(c3ccccc3)c3ccccc3)c3ccc(Cl)cc23)cc1 [Example 201, 4-(3-{1-Benzhydryl-5-chloro-2-[2-(3-trifluoromethoxy-benzenesulfonylamino)-ethyl]-1H-indol-3-yl}-propyl)-benzoic acid]
350	O=C(O)c1ccc(CCCc2c(CCNS(=O)(=O)c3ccc(Cl)c4nonc34)n(C(c3ccccc3)c3ccccc3)c3ccc(Cl)cc23)cc1 [Example 172, 4-{3-[1-benzhydryl-5-chloro-2-(2-{[(7-chloro-2,1,3-benzoxadiazol-4-yl)sulfonyl]amino}ethyl)-1H-indol-3-yl]propyl}benzoic acid]
900	O=C(O)c1ccc(OCCc2c(CCNS(=O)(=O)C[S+]([O-])c3ccc(Cl)c(Cl)c3)n(C(c3ccccc3)c3ccccc3)c3ccc(Cl)cc23)cc1 (centres unmarked) [Example 289, 4-[2-(1-benzhydryl-5-chloro-2-{2-[({[(3,4-dichlorophenyl)sulfinyl]methyl}sulfonyl)amino]ethyl}-1H-indol-3-yl)ethoxy]benzoic acid]
450	O=C(O)c1ccc(CCCc2c(CCNS(=O)(=O)c3c(F)cc(F)cc3F)n(C(c3ccccc3)c3ccccc3)c3ccc(Cl)cc23)cc1 [Example 199, 4-(3-{1-Benzhydryl-5-chloro-2-[2-(2,4,6-trifluoro-benzenesulfonylamino)-ethyl]-1H-indol-3-yl}-propyl)-benzoic acid]
530	O=C(O)c1ccc(OCCc2c(CCNS(=O)(=O)c3ccccc3Cl)n(C(c3ccccc3)c3ccccc3)c3ccc(Cl)cc23)cc1F [Example 190, 4-(2-{1-Benzhydryl-5-chloro-2-[2-(2-chloro-benzenesulfonylamino)-ethyl]-1H-indol-3-yl}-ethoxy)-2-fluoro-benzoic acid]
200	O=C(O)c1ccc(CCCc2c(CCNS(=O)(=O)c3ccccc3OCc3ccccc3)n(C(c3ccccc3)c3ccccc3)c3ccc(Cl)cc23)cc1 [Example 187, 4-(3-{1-Benzhydryl-2-[2-(2-benzyloxy-benzenesulfonylamino)-ethyl]-5-chloro-1H-indol-3-yl}-propyl)benzoic acid]
74	Cc1cc(C)c(S(=O)(=O)NCCc2c(CCCc3ccc(C(=O)O)cc3)c3cc(Cl)ccc3n2C(c2ccccc2)c2ccccc2)c(C)c1 [Example 267, 4-(3-{1-Benzhydryl-5-chloro-2-[2-(2,4,6-trimethyl-benzenesulfonylamino)-ethyl]-1H-indol-3-yl}-propyl)-benzoic acid]
110	CCc1cccc(CC)c1S(=O)(=O)NCCc1c(CCCc2ccc(C(=O)O)cc2)c2cc(Cl)ccc2n1C(c1ccccc1)c1ccccc1 [Example 273, 4-{3-[1-benzhydryl-5-chloro-2-(2-{[(2,6-diethylphenyl)sulfonyl]amino}ethyl)-1H-indol-3-yl]propyl}benzoic acid]
200	Cc1cccc(Cl)c1S(=O)(=O)NCCc1c(CCOc2ccc(C(=O)O)c(F)c2)c2cc(Cl)ccc2n1C(c1ccccc1)c1ccccc1 [Example 191, 4-(2-{1-Benzhydryl-5-chloro-2-[2-(2-chloro-6-methyl-benzenesulfonylamino)-ethyl]-1H-indol-3-yl}-ethoxy)-2-fluoro-benzoic acid]
460	O=C(O)c1ccc(OCCc2c(CCNS(=O)(=O)c3cc(Cl)c(F)cc3F)n(C(c3ccccc3)c3ccccc3)c3ccc(Cl)cc23)cc1 [Example 169, 4-{2-[1-Benzhydryl-5-chloro-2-(2-{[(5-chloro-2,4-difluorophenyl)sulfonyl]amino}ethyl)-1H-indol-3-yl]ethoxy}benzoic acid]
1800	O=S(=O)(NCCc1c(CCOc2ccc(-c3nn[nH]n3)cc2)c2cc(Cl)ccc2n1C(c1ccccc1)c1ccccc1)c1ccccc1Cl [Example 193, N-[2-(1-benzhydryl-5-chloro-3-{2-[4-(2H-tetrazol-5-yl)-phenoxy]-ethyl}-1H-indol-2-yl)-ethyl]-2-chlorobenzenesulfonamide]
400	O=C(O)c1ccc(OCCc2c(CCNS(=O)(=O)CSc3ccc(F)cc3F)n(C(c3ccccc3)c3ccccc3)c3ccc(Cl)cc23)cc1 [Example 288, 4-[2-(1-benzhydryl-5-chloro-2-{2-[({[(2,4-difluorophenyl)thio]methyl}sulfonyl)amino]ethyl}-1H-indol-3-yl)ethoxy]benzoic acid]

SMILES	IC50 [nM]
O=C(O)c1ccc(CCCc2c(CCNS(=O)(=O)Cc3ccc(Cl)cc3)n(C(c3ccccc3)c3ccccc3)c3ccc(Cl)cc23)cc1 [Example 60, 4-{3-[1-benzhydryl-5-chloro-2-(2-{[(4-chlorobenzyl)sulfonyl]amino}ethyl)-1H-indol-3-yl]propyl}benzoic acid]	150
